PubChem BioAssay (NCI)
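Dose response: 5 concentrations. Exposure: 48 h. Format: 96-well plates. Endpoint: linear interpolation; highest concentration if not reached. At the GI50, growth is halved. The concentration for full growth arrest is given as TGI.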

Assays:
Assay in all cases: NCI-60 cell line screen, 48 h
DU-145 prostate = system: DU-145 prostate
IGROV1 ovarian = system: IGROV1 ovarian
EKVX NSCLC = system: EKVX NSCLC
SK-MEL-5 melanoma = system: SK-MEL-5 melanoma
SW-620 colon = system: SW-620 colon
RPMI-8226 leukemia = system: RPMI-8226 leukemia
OVCAR-4 ovarian = system: OVCAR-4 ovarian
HL-60(TB) leukemia = system: HL-60(TB) leukemia
SF-268 CNS = system: SF-268 CNS
M14 melanoma = system: M14 melanoma

Row | SMILES | GI50 (DU-145 prostate) | TGI (DU-145 prostate) | GI50 (IGROV1 ovarian) | TGI (IGROV1 ovarian) | GI50 (EKVX NSCLC) | TGI (EKVX NSCLC) | GI50 (SK-MEL-5 melanoma) | TGI (SK-MEL-5 melanoma) | GI50 (SW-620 colon) | TGI (SW-620 colon) | GI50 (RPMI-8226 leukemia) | TGI (RPMI-8226 leukemia) | GI50 (OVCAR-4 ovarian) | TGI (OVCAR-4 ovarian) | GI50 (HL-60(TB) leukemia) | TGI (HL-60(TB) leukemia) | GI50 (SF-268 CNS) | TGI (SF-268 CNS) | GI50 (M14 melanoma) | TGI (M14 melanoma)
1 | CCOC(=O)[C@@H](C)C[C@H](Cc1ccccc1)NC(=O)c1nc([C@@H](C[C@H](C(C)C)N(C)C(=O)[C@@H](NC(=O)[C@H]2CCCCN2C)C(C)C)OC(C)=O)sc1CCOCc1ccccc1 | 0.0404 µM | 1.08 µM | 0.0995 µM | 2.81 µM | 0.314 µM | > 11.1 µM | 0.05 µM | 0.38 µM | 0.064 µM | > 6.6 µM | 0.107 µM | 2.53 µM | 0.222 µM | > 11.1 µM | 0.0394 µM | 0.19 µM | 0.158 µM | 2.3 µM | 0.0689 µM | 0.727 µM
2 | O=c1cc(-c2ccccc2)oc2ccc(OC/C(=N/O)c3ccccc3)cc12 | 1.73 µM | > 50 µM | 7.62 µM | > 50 µM | 3.82 µM | > 50 µM | 1.82 µM | 11.7 µM | 1.74 µM | > 50 µM | 1.83 µM | > 50 µM | 29 µM | > 50 µM | 2.12 µM | > 50 µM | 2.08 µM | 13.2 µM | > 50 µM | > 50 µM
3 | CCC(CC)c1nc(Nc2ccc(C(=O)OC)cc2)c2ccccc2n1 | > 22.7 µM | > 31.1 µM | 11.6 µM | 28.5 µM | 15.9 µM | > 29.4 µM | 7.82 µM | 16.1 µM | 12.7 µM | > 27.7 µM | 5.08 µM | 22.9 µM | 7.45 µM | 18.6 µM | 8.17 µM | 26 µM | 6.69 µM | 19.1 µM | 10 µM | 21.6 µM
4 | Cc1ccc(Cl)cc1Nc1nc(C(F)(F)F)ccc1C(=O)N/N=C/c1cccnc1 | 3.38 µM | 9.73 µM | 4.22 µM | 15.8 µM | 1.32 µM | 9.01 µM | 2.5 µM | 10.3 µM | 3.32 µM | 14.9 µM | 2.94 µM | > 32.5 µM | 1.33 µM | 15.4 µM | 1.5 µM | > 46 µM | 1.55 µM | 9.32 µM | 1.44 µM | 3.92 µM
5 | CCCCCCCC/C=C/CCCCCCCC1=NC(C)(C)CN1CC(C)O (stereo not given) | 1.71 µM | 3.09 µM | 1.45 µM | 2.84 µM | 4.84 µM | 18.2 µM | 6.39 µM | 16.9 µM | 1.8 µM | 3.34 µM | 2.28 µM | 5.91 µM | 3.08 µM | 11.1 µM | 1.88 µM | 4.44 µM | 1.73 µM | 3.16 µM | 1.79 µM | 3.35 µM
6 | O=C(/C=C/c1ccco1)c1cc(F)c(Cl)cc1Cl | 19.9 µM | 44.1 µM | 17.2 µM | 41 µM | 17.1 µM | 37.3 µM | 17 µM | 32.5 µM | 13.1 µM | 36.3 µM | 13.8 µM | 39.9 µM | 22 µM | 72.3 µM | 30.8 µM | > 100 µM | 20 µM | 45.5 µM | 19.5 µM | 38.4 µM
7 | C=C(C)[C@@H]1CC[C@]2(COCCC#N)CC[C@]3(C)[C@H](CC[C@@H]4[C@@](C)(CCCNCCC#N)[C@H](C(=C)C)CC[C@]43C)[C@@H]12 | 21.6 µM | > 50 µM | 13.1 µM | > 50 µM | 46.9 µM | > 50 µM | 20.2 µM | > 50 µM | 11.5 µM | 31.2 µM | 10.7 µM | 31.4 µM | 18 µM | > 50 µM | 8.47 µM | 20.5 µM | 23.5 µM | > 50 µM | 14.7 µM | > 50 µM
8 | Cc1cc(Nc2ccc(OCc3ccccc3)cc2)nc2cc(O)ccc12 | 11.9 µM | 25.4 µM | 10.6 µM | 26.3 µM | 12.3 µM | 27.2 µM | 1.68 µM | 3.2 µM | 5.12 µM | 19.4 µM | 2.5 µM | 8.33 µM | 8.74 µM | 22.6 µM | 3.38 µM | 14.7 µM | 11.9 µM | 26.4 µM | 2.39 µM | 6.15 µM
9 | NC1=CC(=O)c2cccnc2C1=O | 1.58 µM | 2.97 µM | 1.28 µM | 3.29 µM | 1.58 µM | 3.31 µM | 1.58 µM | 2.95 µM | 1.56 µM | 3.57 µM | 1.81 µM | 4.58 µM | 1.3 µM | 2.78 µM | 1.05 µM | 3.99 µM | 1.48 µM | 3.78 µM | 1.7 µM | 3.24 µM
10 | Cc1cccc(-c2[nH]ncc2-c2ccc3ncccc3n2)n1 | 12.8 µM | > 25 µM | 13 µM | > 25 µM | > 20.7 µM | > 25 µM | 9.63 µM | > 18.5 µM | 9.88 µM | > 25 µM | > 15.1 µM | > 25 µM | > 22.4 µM | > 25 µM | 10 µM | > 23.7 µM | 10.5 µM | > 25 µM | 10.8 µM | > 25 µM
11 | CC[C@@H]1[C@@H](C)O[C@@](O)([C@@H](C)[C@H](O)[C@H](C)[C@H]2OC(=O)/C=C/C=C/[C@H](C)[C@@H]([C@@H](C)[C@@H](O)[C@H](C)[C@@]3(O)C[C@@H](O[C@H]4C[C@@H](O)[C@H](O)C(C)O4)[C@H](CC)[C@@H](C)O3)OC(=O)/C=C/C=C/[C@@H]2C)C[C@H]1O[C@@H]1C[C@@H](O)[C@H](O)C(C)O1 (stereo not given in full) | 0.0732 µM | 0.169 µM | 0.0903 µM | 0.241 µM | 0.11 µM | 0.468 µM | 0.0531 µM | 0.0992 µM | 0.108 µM | 0.454 µM | 0.0643 µM | 0.153 µM | 0.0741 µM | 0.192 µM | 0.0708 µM | 0.14 µM | 0.0698 µM | 0.175 µM | 0.0653 µM | 0.142 µM
12 | CC12OOC(c3ccccc31)c1c2ccc2ccccc12 (stereo not given) |  | 32.4 µM |  | 3.67 µM |  | 18.7 µM |  | 21.6 µM |  | 3.94 µM |  | 6.24 µM |  | 2.43 µM |  | 2.72 µM |  | 28 µM |  | 22.6 µM
